{"source": "patent US12274789B2", "about": "“Oral compositions comprising methylprednisolone sodium succinate” (LABOMED PHARMACEUTICAL COMPANY S.A., priority 2018, dated 2025)", "origin": "cited, not measured here", "settings": "versus prednisolone"}
{"smiles": "C[C@H]1C[C@@H]2[C@H]([C@@H](O)C[C@@]3(C)[C@H]2CC[C@]3(O)C(=O)COC(=O)CCC(=O)[O-])[C@@]2(C)C=CC(=O)C=C12.[Na+]", "note": "[methylprednisolone sodium succinate, pregna-1,4-diene-3,20dione,21-(3-carboxy-1-oxopropoxy)-11,17-dihydroxy-6-methyl-monosodium salt, (6α, 11β)]", "values": [{"measurement": "anti-inflammatory potency, ratio to prednisolone", "result": "5 to 4"}]}
